# According to US20100292185A1, “BETA-LACTAMASE INHIBITORS” (priority 2009, published 2010):
# Counter-ions that a name gives are not always drawn. Like-named read-outs stand apart in the source and are kept apart here.
# Key:
# SHV-5 β-lactamase = target: T1, SHV-5 β-lactamase (Klebsiella pneumoniae, UniProt P0A3M1); assay: β-lactamase enzyme inhibition assay (nitrocefin substrate), SHV-5; format: biochemical
# T1 construct: expressed as native untagged proteins; made in house; host or cells: E. coli BL21(DE3)
# T1 sequence (P0A3M1 22-286): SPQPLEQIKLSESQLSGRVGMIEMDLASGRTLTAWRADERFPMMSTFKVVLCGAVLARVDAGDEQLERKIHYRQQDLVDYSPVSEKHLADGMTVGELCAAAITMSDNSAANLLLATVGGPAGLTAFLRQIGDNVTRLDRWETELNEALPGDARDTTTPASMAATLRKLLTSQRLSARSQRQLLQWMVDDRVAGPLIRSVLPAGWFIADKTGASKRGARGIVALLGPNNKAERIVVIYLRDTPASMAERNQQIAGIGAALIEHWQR
# Description: (§1) Isolation of β-lactamases. For SHV-5, p99 AmpC, KPC-2 and CTX-M15 β-lactamases, E. coli BL21(DE3) bacterial cells carrying expression plasmids (expressed as native untagged proteins) for the individual β-lactamases were grown in 1 L of Superbroth (Teknova Inc. Hollister, Calif.) supplemented with 100 μg/ml kanamycin and 1×5052 (0.5% glycerol, 0.05% glucose and 0.2% α-lactose) at 35° C. for 18-20 hours. Cells were harvested by centrifugation (4,000×g, 4° C., 20 min), and resuspended in 50 ml of 10 mM HEPES pH 7.5 (1/20 of the initial volume). The cells were lysed by sonication (5 pulses of 45 seconds) at 45 W on ice. The lysates were clarified by centrifugation at 10,000×g for 40 minutes at 4° C. Samples were diluted 5-fold in 50 mM sodium acetate pH 5.0, stored overnight at 4° C., after which they were centrifuged at 10,000×g for 30 minutes to clarify, and filtered through 0.45 μm filters. The samples were loaded onto a 5 ml Capto S sepharose cation exchange column (GE Healthcare) pre-equilibrated with 50 mM sodium acetate pH 5.0. The column was washed with 5 column volumes of 50 mM sodium acetate pH 5.0 to wash out unbound protein and a linear gradient of NaCl (0 to 500 mM) was used to elute the protein (over 16 CV) from the column. Fractions were assayed for β-lactamase activity using Centa (Calbiochem, Gibbstown, N.J.) as a reporter β-lactamase substrate for activity in the isolated fractions. Active fractions were pooled, concentrated and further purified by gel filtration chromatography on a Superdex 75 prep grade gel filtration column (GE Healthcare, Piscataway, N.J.) pre-equilibrated in 50 mM Hepes pH 7.5, 150 mM NaCl. Active fractions were pooled concentrated, quantitated by BCA protein determination (Thermo Scientific, Rockford, Ill.), and frozen at −80° C. in 20% glycerol until use.
# (§2) β-lactamase Inhibition. To determine the level of inhibition of β-lactamase enzymes, compounds were diluted in PBS at pH 7.0 to yield concentrations between 100 and 0.005 μM in microtiter plates. An equal volume of diluted enzyme stock was added, and the plates were incubated at 37° C. for 10 min. Nitrocefin solution was then dispensed as substrate into each well at a final concentration of 100 μM, and the plates were immediately read with the kinetic program at 486 nm for 10 min on the SPECTRAMAX® Plus^384 (high-throughput microplate spectrophotometer; Molecular Devices Corp., Sunnyvale, Calif.). Maximum rates of metabolism were then compared to those in control wells (without inhibitors), and percentages of enzyme inhibition were calculated for each concentration of inhibitor. The concentration of inhibitor needed to reduce the initial rate of hydrolysis of substrate by 50% (IC50) was calculated as the residual activity of β-lactamase at 486 nm using the SoftMax Pro 5.0 software (Molecular Devices Corp.).
# (§3) Using the methodology described above, examples of the current invention were evaluated for their ability to inhibit β-lactamase enzymes. The results of these assays are summarized in Table 2 for representative enzymes across different subtypes (note SHV-5 and CTXM-15 exemplify different subclasses of Ambler Class A Extended Spectrum Beta Lactamases, KPC-2 exemplifies Class A carbapenemases, P99 represents chromosomal Class C AmpC, VIM-2 exemplifies subclass B1 of metallo-β-lactamases, and OXA-23 represents chromosome-encoded Class D oxacillin-hydrolyzing β-lactamases), NT=not tested.
# CTX-M15 β-lactamase = target: T2, CTX-M15 β-lactamase (Escherichia coli, UniProt Q9EXV5); assay: β-lactamase enzyme inhibition assay (nitrocefin substrate), CTXM-15; format: biochemical
# T2 construct: expressed as native untagged proteins; made in house; host or cells: E. coli BL21(DE3)
# T2 sequence (Q9EXV5 entry or part of it): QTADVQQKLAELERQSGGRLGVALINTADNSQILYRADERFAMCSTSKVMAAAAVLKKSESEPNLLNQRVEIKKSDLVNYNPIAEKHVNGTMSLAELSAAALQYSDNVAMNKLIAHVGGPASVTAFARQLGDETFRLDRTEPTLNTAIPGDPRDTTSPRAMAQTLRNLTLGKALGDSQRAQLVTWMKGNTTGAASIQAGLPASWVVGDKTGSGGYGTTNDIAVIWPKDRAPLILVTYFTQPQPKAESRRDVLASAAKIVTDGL
# Description: as §1, §2, §3
# p99 AmpC β-lactamase = target: T3, p99 AmpC β-lactamase (Enterobacter cloacae, UniProt P05364); assay: β-lactamase enzyme inhibition assay (nitrocefin substrate), P99 AmpC; format: biochemical
# T3 construct: expressed as native untagged proteins; made in house; host or cells: E. coli BL21(DE3)
# T3 sequence (P05364 21-381): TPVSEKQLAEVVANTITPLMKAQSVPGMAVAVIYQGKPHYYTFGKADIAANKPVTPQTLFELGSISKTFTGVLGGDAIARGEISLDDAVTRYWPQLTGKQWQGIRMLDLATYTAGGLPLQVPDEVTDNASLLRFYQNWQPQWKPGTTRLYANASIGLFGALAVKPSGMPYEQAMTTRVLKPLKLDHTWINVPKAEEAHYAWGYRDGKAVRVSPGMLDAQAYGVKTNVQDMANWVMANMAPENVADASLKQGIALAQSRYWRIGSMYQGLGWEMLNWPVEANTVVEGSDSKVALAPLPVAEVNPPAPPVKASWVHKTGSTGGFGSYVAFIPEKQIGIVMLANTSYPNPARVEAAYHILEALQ
# Description: as §1, §2, §3
# KPC-2 β-lactamase = target: T4, KPC-2 β-lactamase (Klebsiella pneumoniae, UniProt Q9F663); assay: β-lactamase enzyme inhibition assay (nitrocefin substrate), KPC-2; format: biochemical
# T4 construct: expressed as native untagged proteins; made in house; host or cells: E. coli BL21(DE3)
# T4 sequence (Q9F663 25-293 limits assumed): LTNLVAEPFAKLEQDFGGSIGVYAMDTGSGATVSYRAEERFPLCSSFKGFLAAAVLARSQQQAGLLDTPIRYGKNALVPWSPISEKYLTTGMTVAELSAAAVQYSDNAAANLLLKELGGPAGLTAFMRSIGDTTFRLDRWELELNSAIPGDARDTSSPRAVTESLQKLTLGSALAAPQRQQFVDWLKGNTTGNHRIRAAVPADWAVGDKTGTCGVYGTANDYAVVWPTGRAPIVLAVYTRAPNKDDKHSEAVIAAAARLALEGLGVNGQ
# Description: as §1, §2, §3
# [1] = system: E. coli expressing the Class A ESBL SHV-5; assay: In vitro antibacterial assay of β-lactamase inhibition (broth microdilution MIC), E. coli SHV-5; format: cell-based; details: in presence of Ceftazidime 8 μg/ml (Examples 1-56)
# Excerpt: (§4) To determine the ability of test compounds to potentiate the inhibition of the growth of bacterial strains producing beta-lactamase enzymes, classic cell based screening assays were employed. Five bacteria strains producing beta-lactamase enzymes were used: K. pneumoniae expressing the Class A Extended Spectrum Beta-Lactamase (ESBL) CTX-M-15, E. coli expressing the Class A ESBL SHV-5, E. cloacae expressing the Class C P99+, K. pneumoniae expressing the Class A carbapenemase KPC-2, and P. aeruginosa expressing the Class B metallo β-lactamase VIM-2. In order to evaluate the ability of test compounds to inhibit beta-lactamase activity, Applicants used a modification of the broth microdilution assay. The assay was conducted in Cation Adjusted Mueller Hinton Broth (CAMHB, BD # 212322, BD Diagnostic Systems, Sparks, Md.). Bacteria strains were grown for 3-5 hours in CAMBH broth. All five strains were grown in presence of 50 μg/mL ampicillin to ensure resistance is maintained. In the meantime, test compounds were diluted in DMSO to a 0.1 mg/mL stock. The compounds were added to a microtiter plate and were diluted in 2-fold serial dilutions in CAMHB in a final concentration range of 8 μg/mL to 0.015 μg/ml. […] Each of these compound plates are made in quadruplicate, one for each bacteria strain. In addition to the titration of test compounds the MICs of a panel of cephalosporins is also tested to ensure the strains are behaving consistently from test to test. Once the test compound and cephalosporin are added the plates can be inoculated. Inocula are conducted according to CLSI broth microdilution method. After inoculation the plates are incubated for 16-20 hours at 37° C. then the Minimal Inhibitory Concentration (MIC) of the test compound is determined visually.
# (§5) Using the methodology described above, examples of the current invention were evaluated for their ability to inhibit the growth of β-lactamase producing bacteria in the presence of a β-lactam antibiotic.
# [2] = system: K. pneumoniae expressing the Class A Extended Spectrum Beta-Lactamase (ESBL) CTX-M-15; assay: In vitro antibacterial assay of β-lactamase inhibition (broth microdilution MIC), K. pneumoniae CTX-M-15; format: cell-based; details: in presence of Ceftazidime 8 μg/ml (Examples 1-56)
# Excerpt: as §4, §5
# [3] = system: E. cloacae expressing the Class C P99+; assay: In vitro antibacterial assay of β-lactamase inhibition (broth microdilution MIC), E. cloacae P99+; format: cell-based; details: in presence of Ceftazidime 8 μg/ml (Examples 1-56)
# Excerpt: as §4, §5
# [4] = system: K. pneumoniae expressing the Class A carbapenemase KPC-2; assay: microbe, parasite or virus in culture; format: cell-based; details: in presence of Ceftazidime 8 μg/ml (Examples 1-56)
# Excerpt: as §4, §5
# [5] = system: P. aeruginosa expressing the Class B metallo β-lactamase VIM-2; assay: In vitro antibacterial assay of β-lactamase inhibition (broth microdilution MIC), P. aeruginosa VIM-2; format: cell-based; details: in presence of Ceftazidime 16 μg/mL (Examples 1-56)
# Excerpt: as §4, §5
# [6] = nitrocefin 100 μM, 37° C., PBS pH 7.0, read-out: P99 AmpC IC50
SMILES,IC50 (SHV-5 β-lactamase),IC50 (CTX-M15 β-lactamase),IC50 (p99 AmpC β-lactamase; [6]),IC50 (KPC-2 β-lactamase),"MIC of example compound, E. coli SHV-5 [1]","MIC of example compound, K. pneumoniae CTX-M-15 [2]","MIC of example compound, E. cloacae P99+ [3]","MIC of example compound, K. pneumoniae KPC-2 [4]","MIC of example compound, P. aeruginosa VIM-2 [5]",IC50 (p99 AmpC β-lactamase)
"Cl.O=C(N[C@@H](Cc1cccc(C(=O)O)c1O)B(O)O)c1ccc(CNCCO)cc1 [Example 16, (1R)-[4-(2-hydroxy-ethylamino)-methyl]-benzoylamino-(3-carboxy-2-hydroxy)benzyl-methyl boronic acid hydrochloride]",> 1000 nM,5 nM,6 nM,5 nM,8 µg/mL,1 µg/mL,0.25 µg/mL,0.03 µg/mL,4 µg/mL,–
"O=C(N[C@@H](Cc1cccc(C(=O)O)c1O)B(O)O)c1cccc(CN(CCO)CCO)c1 [Example 23, (1R)-(3-{[bis-(2-hydroxy-ethyl)-amino]-methyl}-benzoylamino)-(3-carboxy-2-hydroxy)benzyl-methylboronic acid formate]",17 nM,2 nM,0.9 nM,8.1 nM,8 µg/mL,1 µg/mL,2 µg/mL,0.12 µg/mL,>8 µg/mL,–
"CC(=O)N(CCN)Cc1cccc(C(=O)N[C@@H](Cc2cccc(C(=O)O)c2O)B(O)O)c1 [Example 24, (1R)-(3-{[acetyl-(2-amino-ethyl)-amino]-methyl}-benzoylamino)-(3-carboxy-2-hydroxy)benzyl-methylboronic acid formate]",350 nM,4 nM,2 nM,18 nM,8 µg/mL,1 µg/mL,1 µg/mL,0.12 µg/mL,>8 µg/mL,–
"O=C(N[C@@H](Cc1cccc(C(=O)O)c1O)B(O)O)c1cccc(CNCCCO)c1 [Example 25, (1R)-[3-{(3-hydroxy-propylamino)-methyl}-benzoylamino]-(3-carboxy-2hydroxy)benzyl-methylboronic acid formate]",580 nM,3 nM,0.9 nM,20 nM,8 µg/mL,1 µg/mL,0.5 µg/mL,0.03 µg/mL,>8 µg/mL,–
"O=C(N[C@@H](Cc1cccc(C(=O)O)c1O)B(O)O)c1cccc(CNc2cccnc2)c1 [Example 26, (1R)-[3-(pyridin-3-ylaminomethyl)-benzoylamino]-(3-carboxy-2hydroxy)benzyl-methylboronic acid formate]",94 nM,1 nM,0.4 nM,11 nM,>8 µg/mL,4 µg/mL,2 µg/mL,0.5 µg/mL,>8 µg/mL,–
"CN(C)Cc1cccc(C(=O)N[C@@H](Cc2cccc(C(=O)O)c2O)B(O)O)c1 [Example 27, (1R)-(3-dimethylaminomethyl-benzoylamino)-(3-carboxy-2-hydroxy)benzyl-methylboronic acid formate]",312 nM,3 nM,1.4 nM,14 nM,>8 µg/mL,1 µg/mL,0.5 µg/mL,0.03 µg/mL,>8 µg/mL,–
"CC(C)(O/N=C(\C(=O)N[C@@H](Cc1cccc(C(=O)O)c1O)B(O)O)c1csc(NC(=O)CN)n1)C(=O)O.Cl [Example 50, 3-{2(R)-[2-[2-(2-amino-acetylamino)-thiazol-4-yl]-2(Z)-(1-carboxy-1-methyl-ethoxyimino)-acetylamino]-2-borono-ethyl}-2-hydroxy-benzoic acid hydrochloride]",24 nM,34 nM,23 nM,158 nM,>8 µg/mL,>8 µg/mL,>8 µg/mL,>8 µg/mL,>8 µg/mL,–
"CO/N=C(\C(=O)N[C@@H](Cc1cccc(C(=O)O)c1O)B(O)O)c1csc(NC(=O)CN)n1.Cl [Example 51, 3-(2(R)-{2-[2-(2-amino-acetylamino)-thiazol-4-yl]-2(Z)-methoxyimino-acetylamino}-2-borono-ethyl)-2-hydroxy-benzoic acid hydrochloride]",15 nM,40 nM,17 nM,58 nM,>8 µg/mL,>8 µg/mL,>8 µg/mL,>8 µg/mL,>8 µg/mL,–
"CO/N=C(\C(=O)N[C@@H](Cc1cccc(C(=O)O)c1O)B(O)O)c1csc(NC(=O)[C@@H](N)CCCCN)n1 [Example 52, 3-(2(R)-{2-[2-(2(S),6-diamino-hexanoylamino)-thiazol-4-yl]-2(Z)-methoxyimino-acetylamino}-2-borono-ethyl)-2-hydroxy-benzoic acid hydrochloride]",26 nM,55 nM,–,89 nM,>8 µg/mL,>8 µg/mL,>8 µg/mL,2 µg/mL,>8 µg/mL,8 nM
